# In patent publication US11291705B2, “Use of caspase-3 inhibitors and caspase-3 activators in the manufacture of medicament for treating cancer and wound healing” (Technion Research & Development Foundation Limited, priority 2016, dated 2022):
# Key:
# [1] = test system: YAP target genes; test: RT-PCR of YAP dependent target genes in treated HaCaT cells; format: cell-based; conditions: relative to DMSO treated cells
# Procedure: RNA extraction, reverse transcription and real-time PCR (RT-PCR)—RNA was isolated using Trizol (Sigma) and up to 2 μg of RNA were subjected to cDNA synthesis (Applied Biosystems). Real time PCR was carried out using the PerfeCTa SYBR Green FastMix (Quanta), with gene-specific primers [RpLp0 [sequence] […] Amplicon levels were analysed in triplicate and quantitated relative to a standard curve comprising cDNA, and values normalized to levels of the housekeeping gene (Rplp0 or Gapdh). Reactions were: 3 minutes at 95° C., then 40 cycles of 10 seconds at 95° C. and 30 seconds at 60° C. with addition of melt curve step: 10 seconds at 95° C., and increments of 0.5° C. every 5 seconds between 65° C. to 95° C.
# [2] = test system: 624-38 melanoma cell line; test: Proliferation of melanoma cell line 624-38; format: cell-based
# Description: (§1) FIGS. 14A-C depict inhibition of Caspase-3 attenuates proliferation of melanoma cells. […] FIG. 14C—Immunofluorescence of decreased Ki67^+ cells (green) after 4 days of Caspase-3 inhibition. Scale bars, 20 μm (FIG. 14C right panels), 100 μm (FIG. 14A, FIG. 14B panels).
# (§2) In order to examine this hypothesis, the present inventors first investigated the effect of caspase-3 inhibition on the proliferation rate of melanoma cells. […] Similar results were also obtained when examining 4 additional cell types (HaCaT keratinocytes, Hek293E3, K15 SG progenitors and hair follicle stem cells) (FIGS. 10A-F).
# [3] = test system: 501A melanoma cell line; test: Proliferation of melanoma cell line 501A; format: cell-based
# Description: as §1, §2
# [4] = test system: B16F10 melanoma cells; test: B16F10 melanoma cells in vitro: growth, Ki67, pYAP, α-Catenin; format: cell-based
# Description: FIG. 23D—A histogram depicting quantifications of 501-A total cells number after treatment with Z-DEVD-fink (SEQ ID NO: 71). FIG. 23E—Images depicting B16F10 melanoma cells stained for Ki67 (red), active cleaved Caspase-3 (green) and nuclear counterstain DAPI (blue). […] Insets are zoom in on specific cells, Denotation: CP3, Caspase-3. Scale bars: 100 μm. ** (P<0.01), *** (P<0.001).
# FIG. 24A—Images depicting B16F10 melanoma cells stained for pYAP (red). […] FIG. 24D—Images depicting B16F10 melanoma cells stained for α-Catenin (green). […] FIG. 24E—Immunoblot analysis of proteins isolated from B16F10 melanoma cells using antibodies against pYAP, α-Catenin and α-Tubulin as control.
# [5] = test system: α-Catenin; test: α-Catenin levels in low confluent HaCaT cells; format: cell-based
# Procedure: (§3) Cell culture—The HaCaT and HEK293 cell lines were cultured in DMEM medium supplemented with 10% FBS, 1% P/S (Pen/Strep) and 1% L-glutamine. Integrin α6^+CD34^+ HFSCs and integrin α6^+CD34^−EGFP^high SGPZ cells were isolated and cultured in HFSC media on sustaining J2 feeder cells. Serum was chelated for a calcium concentration of 50 μM. […] Cells were fixed in 4% PFA for 10 minutes for immunofluorescence analysis or harvested for protein or RNA extraction.
# TUNEL was performed using ApopTag TdT (Millipore). […] Analysis was performed on Zeiss LSM 880 confocal microscope.
# The levels of α-Catenin are known to be a critical factor in the regulation of YAP (27). In low confluent cells, diminished levels of α-Catenin serve as a mechanotransduction mechanism that instructs the nuclear translocation of YAP and drives proliferation (27, 33). […] The present inventors therefore examined the levels of α-Catenin both in vitro and in vivo, by employing both Western blot analysis and immunofluorescence.
# [6] = test system: excision wounds (1 cm^2) on dorsal skin; test: Wound repair of full thickness excision wounds on dorsal skin; format: in vivo, mice
# Description: For all wound repair experiments, mice were sedated with isofluorane. Mice were shaved with electric clippers and treated topically with a hair removal cream for a few minutes (Nair). Full-thickness excision wounds (1 cm^2) were generated on the dorsal skins and monitored for wound coverage. PWI, mice were individually housed. At the desired time PWI, mice were euthanized with CO2 and the wounded skins were harvested and either embedded in OCT or prepared for whole mounts as described above or for protein extraction.
# Inhibition of caspase-3 impairs wound repair—Since YAP is known to play a chief role in regeneration (34), the present inventors investigated whether in vivo inhibition of Caspase-3 affects the wound repair dynamic by modulating YAP activity. […] Full thickness excision wounds (1.0 cm^2) were generated on the dorsalbacks and monitored for wound coverage. In control mice, three days post wound infliction (PWI) the wound size was reduced by 60% while in Ivachtin and z-DEVD-fink (SEQ ID NO: 71) treated mice, it was reduced by only 10% and 20%, respectively (FIG. 5A and FIG. 5B).
# [7] = test system: YAP; test: YAP localization and pYAP levels in HEK293 cells; format: cell-based
# Procedure: as §3
# [8] = test system: integrin α6+CD34−EGFPhigh SGPZ cells; test: Proliferation and expansion of isolated SGPZ cells treated with caspase-3 inhibitors; format: cell-based, mice; conditions: z-DEVD-fmk added initially
# Procedure: Flow Cytometry—SGPZ cell isolation and FACS analysis were performed with K15-EGFP mice and CD34, integrin α6 and Sca1 antibodies. K15-GFP^high cells were isolated from ears and dorsal skin of 8-week old B6.Cg-Tg(Krt1-15-EGFP)2Cot/J mice.
# [9] = test system: human melanoma cells; test: GFP-infected human melanoma cells injected into recipient mice; conditions: mouse, in vivo
# Procedure: FIG. 15A—Melanoma cell were injected into recipient mice. […] Representative image 6 days after first treatment. FIG. 15B—quantification of tumor development indicates inhibition of tumor size in response to caspase-3 inhibition. FIG. 15C—Extracted tumors were analyzed for proliferation using the Ki67 marker and the presence of GFP^+ melanoma cells. FIG. 15D—Tumors treated with the caspase-3 activator ABT-199 result in a dramatic increase in tumor mass. […] Scale bars, 20 μm.
# Examination of the effect of caspase-3 inhibition on melanoma formation in vivo—For this aim human melanoma cells were stably infected with GFP. Cells were then injected into to recipient mice and the effect of administrating caspase-3 inhibitors was monitored.
# [10] = test system: integrin α6+CD34+ HFSCs, HaCaT keratinocytes and Hek293E3 cells; test: Expansion of other cell types treated with caspase-3 inhibitors; format: cell-based; conditions: one treatment
# Description: In order to examine whether Caspase-3 affects the expansion of other cell types the present inventors isolated integrin α6^+CD34^+ HFSCs from second telogen mice.
# [11] = test system: YAP; test: YAP nuclear translocation and pYAP levels in EGFPhigh SGPZ cells; format: cell-based, mice; conditions: immunoblot
# Procedure: as §3
# Given that Caspase-3 inhibition hindered cell number and proliferation in vitro the present inventors next examined whether this was mediated via YAP in EGFP^high SGPZ cells using K15^+ SGPZ cells. […] Similar findings as to effect of caspase-3 inhibition on YAP activation and proliferation were also obtained in HaCaT and Hek293E3 cells (FIGS. 3J-K, FIGS. 11B-F).
# [12] = test system: sebaceous gland (SG); test: Sebaceous gland (SG) size and cell proliferation in mice injected subcutaneously with caspase-3 inhibitors or activators; format: in vivo; conditions: eight week old mice, subcutaneous injection for 7 days
# Procedure: Immunofluorescence—Skins were embedded in OCT, frozen, sectioned, and fixed in 4% paraformaldehyde. Tail samples were treated with 5 mM EDTA for 4 hours at 37° C. to separate skin epithelium from dermis and fixed in formal saline for 2 hours at room temperature. Dorsal samples were treated with 5 mM EDTA for 6 hours at 37° C. to separate skin epithelium from dermis and fixed in formal saline for 1 hour at room temperature. Samples were blocked for 2 hours in Blocking buffer consisting of 10% Goat serum, 2% BSA, 0.2% Triton-X. Primary antibodies were diluted in blocking buffer and tissue/sections were incubated overnight at 4° C. Whole mounts or sections were washed at least 3 times with PBS. Secondary antibodies were incubated for 1 hour at room temperature followed by 4 washes with PBS. The following primary antibodies were used: YAP (Rabbit, 1:100, Cell Signalling, Mouse 1:100 Santa Cruz), pYAP (Rabbit, 1:100 Cell Signalling), α-E-Catenin (Rabbit, 1:100, Cell Signalling), Ki67 (Rabbit, 1:100, Abcam; Rat, 1:100, eBioscience), CD34 (Rat, 1:100, eBioscience), K15 (Mouse, 1:100, Thermo, Chicken, 1:1000, Abcam), Sox9 (Rabbit, 1:100, Millipore, Goat, 1:50, Santa Cruz). Cleaved-Caspase-3 (Rabbit, 1:100, Cell signalling), Phalloidin (1:250, Life Technologies). TUNEL was performed using ApopTag TdT (Millipore). […] Analysis was performed on Zeiss LSM 880 confocal microscope.
substance,measurement,setting,value
z-DEVD-fmk,"ErbB4 expression, downregulation",[1],6 fold
same,"HOXA5 expression, decrease",[1],2 fold
same,"HOXC13 expression, decrease",[1],5 fold
same,"WTIP expression, downregulation",[1],2 fold
same,cell proliferation and number,[2],dramatic decrease
same,cell proliferation and number,[3],dramatic decrease
same,proliferative (Ki67) cells,[4],reduced levels of proliferative cells
same,phosphorylated YAP-positive cells (pYAP+),[4]; compared to DMSO,significant increases
same,growth of B16F10 melanoma cells,[4]; continuous presence of inhibitor,hindered
same,levels of α-Catenin,[5],increased levels
same,de novo HF regeneration from the wound bed,[6]; 20 and 30 days PWI,inhibited
same,wound closure,[6]; FIGS. 19A-F,significant decrease
same,cells positive for nuclear YAP in the wound border,"[6]; mouse, in vivo",Decreased nuclear YAP
same,wound size reduced by,"[6]; three days post wound infliction, injected from 2 days prior to wounding",20%
same,nuclear YAP localization,[7],Decreased nuclear YAP localization
same,pYAP levels,[7]; Western blot,increased pYAP levels
same,cell number,[8],dramatically inhibited
same,number of formed colonies,[8],dramatically inhibited
same,"effect on tumor development, one inhibitor compared with the other",[9],stronger effect
same,expansion of cells,[10],impaired the expansion
same,levels of pYAP,[11],increased pYAP levels
same,SG size,[12],decrease in SG size
